Source: patent publication US20210277050A1, “OPHTHALMIC COMPOSITIONS AND METHODS FOR THE TREATMENT OF EYE DISORDERS” (Cellix Bio Private Limited, priority 2018, published 2021)

How the values were obtained:
[1] = test system: BSO-Induced Cataract Formation; assay: BSO-induced cataract formation in rats (slit-lamp, lenses opaque or clear); details: read at 14-15 days; for animals developed cataract: new born rats
Description: Effects of CLX-SYN-G165-001 on BSO-Induced Cataract Formation in Rats Sprague-Dawley rats (female, timed pregnant) were housed in the Research Animal Facilities and given food and water ad libitum. They were breast fed.
Animals were divided into 3 groups and given 4 injections per day for 2 days, according to the following protocol: Each experimental group consisted of 20-25 animals. BSO, L-Buthionine-(S,R)-sulfoximine was dissolved in 0.1 M NaCl and injected at a concentration of 3 mmol/g body weight (total volume not exceeding 60 ml). CLX-SYN-G165-001 was dissolved in ethanol: NaCl (50:50, v/v). BSO was injected subcutaneously into new born animals (age 28-36 hours). CLX-SYN-G165-001 (15 mg/kg b.w.) was given intraperitoneally. An equivalent volume of ethanol: NaCl and/or NaCl was given to the controls. Rats were sacrificed when they opened their eyes (14-15 days). Cataract formation was visualized with a slit-lamp microscope and the lenses were classified as opaque or clear.

Lens GSH = Lens GSH and GSSG level (enzymatic recycling method) in BSO-treated rats
Description: Animals were divided into 3 groups and given 4 injections per day for 2 days, according to the following protocol: Each experimental group consisted of 20-25 animals. BSO, L-Buthionine-(S,R)-sulfoximine was dissolved in 0.1 M NaCl and injected at a concentration of 3 mmol/g body weight (total volume not exceeding 60 ml). CLX-SYN-G165-001 was dissolved in ethanol: NaCl (50:50, v/v). BSO was injected subcutaneously into new born animals (age 28-36 hours). CLX-SYN-G165-001 (15 mg/kg b.w.) was given intraperitoneally. An equivalent volume of ethanol: NaCl and/or NaCl was given to the controls. Rats were sacrificed when they opened their eyes (14-15 days). […] Isolation of lenses: After decapitation of the animals the eyes were carefully dissected out from the ciliary body and the lens capsule was released from the enucleated eye globes. Each lens was weighed and placed in a microfuge tube and frozen immediately in liquid nitrogen for future analyses. Glutathione: Frozen lenses were homogenized in 5% sulfosalicylic acid, 5 mM EDTA, ice cold and bubbled with argon. After centrifugation GSH and GSSG were determined by the enzymatic recycling method.

Row | Structure (SMILES) | animals developed cataracts ([1]; BSO alone, subcutaneously, new born rats (age 28-36 hours)) [%] | GSH in the lenses, % lower than that of the control lenses (Lens GSH; BSO-treated rats) | animals developed cataract ([1]; BSO plus CLX-SYN-G165-001 (15 mg/kg b.w. intraperitoneally), 4 injections per day for 2 days, p<0.005 vs BSO only) [%] | animals developed cataract ([1]; CLX-SYN-G165-001 without BSO (15 mg/kg b.w. intraperitoneally)) [%] | lens GSH level, % that of control level (Lens GSH; treatment with BSO and CLX-SYN-G165-001, p<0.001 vs BSO only)
1 | CCCCS(=N)(=O)CCC(N)C(=O)O [BSO, L-Buthionine-(S,R)-sulfoximine, reference compound] | 100 | about 55% | – | – | –
2 | CC(C)=CCC[C@@H](C)[C@H]1CC[C@@]2(C)C3=C(CC[C@]12C)[C@@]1(C)CC[C@H](OC(=O)CCCC[C@@H]2CCSS2)C(C)(C)[C@@H]1CC3 [CLX-SYN-G165-001] | – | – | 13 | 0 | 84-87%
